According to patent EP0133795B1 (THE McLEAN HOSPITAL CORPORATION, priority 1983, dated 1985):
“Also recorded” adds a separate entry of the source. Like-named read-outs stand apart in the source and are kept apart here.

Columns and labels:
[1] = system: general motor activity of mice; assay: General locomotor activity of mice (Stoelting electronic activity monitor); assay type: in vivo, Balb/c mice; conditions: Mus musculus, ip, 1 h; i.p.; 60-min general motor activity vs vehicle-injected and uninjected controls; 8 animals per dose
[2] = mouse, in vivo
[3] = n-Octanol/water partition coefficient; assay type: physicochemical; conditions: 5 ml n-octanol / 5 ml water, stirring 18 hours, read-out: KOW: Octanol/Water Partition Coefficient (converted)
Experimental: A Partition Coefficient was defined by the equation: [formula] representing the amount of the ester taken up per ml of n-octanol relative to the amount of the same compound taken up per ml of water.
The n-octanol/water partition coefficients were obtained from measurements of the distribution of 1, 3, 5 and 6 pmol quantities of each ^14C-labeled compound into a mixture of 5 ml of n-octanol and 5 ml water. At each concentration, the amount of labeled compound in the aqueous and n-octanol phases was calculated from the amount of radioactive material present after stirring for 18 hours.

in vivo = conditions: mouse, sc
stereotypic behavior = assay: Stereotypy behavior test (apomorphine or D-amphetamine induced); assay type: in vivo, mice
Experimental: Stereotypy tests were carried out by the method of A. Campbell et al, Neuropharmacol. 21, 953 (1982). Test mice were pretreated with Compound 26 (i.p. injection), then 15 min later apomorphine or D-amphetamine sulfate was injected i.p. The animals were observed every 10 min and rated for stereotypic behavior in comparison to controls.
Rating scale: • 0 = no stereotypy • 1 = discontinuous sniffing • 2 = continuous sniffing • 3 = continuous sniffing and jaw movements
The average total score per animal was obtained (maximum positive score = 18) over a 60-min period. A compound which depresses this score is considered to have properties of a neuroleptic with a potential for use as an antipsychotic agent. The results (see Table VIII) show a pronounced reduction of stereotypy, down to 24% of control.

[4] = system: general motor activity of mice; assay: General locomotor activity of mice (Stoelting electronic activity monitor); assay type: in vivo, Balb/c mice; conditions: for In Vivo Inhibition of General Motor Activity: graded 0-5; for effect on motor activity at low doses: 10 mg/kg (19 µmol/kg) or below, 10 mg/kg
Experimental: The effect of intraperitoneal (i.p.) injections of test compounds on the general motor activity of mice during a 60-min period was determined in a Stoelting electronic activity monitor. Dose-response curves were obtained from which the half-maximally effective values were calculated and the results are shown in Table V.
The compounds were dissolved in 25% (vols.) propylene glycol in water and injected i.p. into Balb/c mice (18-24 g). Dose-response measurements were obtained for 6 animals per dose or time point. Activity was monitored for 60 min using a Stoelting Electronic Activity Monitor (EAM) apparatus to assess the general motor activity of the animals.
The general locomotor activity of mice was measured in the Stolting activity monitor apparatus during 60 min after an intraperitoneal (i.p.) injection of a test compound.

[5] = Comparative brain/liver uptake of 14C-labeled compounds (Brain Penetration Index); conditions: for increase of 5-min BPI over GABA: 5 min after s.c. injection, relative to GABA
Experimental: The criterion used herein for measuring the extent to which a compound, from which the radical A is derived, crosses the blood-brain barrier is based on the uptake of this compound by the brain relative to its uptake by the liver. […] Measurements of the quantity of a compound present in brain and liver at 5 minutes after a subcutaneous (s.c.) injection were used to calculate a Brain Penetration Index (BPI), with the equation: [formula]
This is the amount of the compound present per gram of brain tissue as a percent of the amount per gram of liver tissue.
This procedure has the advantage that even for a sparingly soluble lipid ester, which tends to remain largely at the site of the injection and slowly diffuse into the circulation, its level in the liver will reflect the amount available rather than the initial dose injected.
The uptake of a ^14C-labeled compound into brain was compared with the uptake into liver of the same animal.
All determinations were carried out at 5 min after injection. The volumes of the injected doses into mice (body weight, 18-24 g) for the i.v., i.p., and s.c. doses were 0.15, 0.3 and 0.5 ml, respectively. […] Each tissue was homogenized in 8 ml of pyridine in a glass homogenizer.
Each labeled test compound was injected as a solution in 0.5 ml of saline (Compound 7) or in 25% propylene glycol in water (Compounds 1, 5, 6) subcutaneously (s.c.) into young adult Balb/c mice (18-24 g body weight). After 5 min (or longer) animals were sacrificed and the brain and liver removed, weighed and homogenized respectively in 8 ml and 10 ml of brain protein solvent (1 % (w/v) sodium dodecyl sulfate in 6 M urea and 19 mM EDTA, pH 7.4, 0.03 M phosphate). Aliquots (0.5 ml) of the homogenates were mixed with 10 ml of Aquasol 2 (New England Nuclear) and counted in a Beckman liquid scintillation counter. The total uptake of each compound per g brain and liver tissue was calculated. The proportion of uptake into brain as compared to liver (100%) of the same animal was designated as the Brain Penetration Index (BPI), expressed as a percentage typically at 5 min after injection.
Each of the ^14C-labeled Compounds 26, 28 and 30 were in 125 µl of the propylene glycol diluted with water up to 0.5 ml, and then injected subcutaneously into test Balb/c mice (20 ± 2 g weight). After 5 min the animals were sacrificed and the brain and liver were removed, weighed and homogenized in 8 ml and 10 ml of brain protein solvent, respectively. Next 0.5 ml aliquots were mixed with 10 ml of Aquasol 2 (New England Nuclear Corp., Boston, MA) and counted in a Beckman liquid scintillation counter. The data for the label in each tissue were used to calculate the total quantity of the compound present in brain and liver per gram of tissue. The ratio of the amount in brain as a percent of that present in liver at 5 min was taken as the Brain Penetration Index (BPI). Measurements at longer uptake times were also obtained to evaluate the accumulation of the compounds in the brain.

[6] = system: bicuculline-induced epileptic seizures; assay: Delay of onset of bicuculline-induced seizures (anticonvulsant activity); assay type: in vivo, mouse; conditions: for In Vivo Delay of Time of Onset of Bicuculline-induced seizures: graded 0-5
Experimental: In a second behavioral test, the ability of a substance to prevent or delay the onset of biculline-induced epileptic seizures was measured. […] At 24 hr after i.p. injection of the cholesteryl derivative at a dose of 30 mg/kg (64 pmol/kg), the onset of seizures was delayed by 30% after an acute i.p. injection of bicuculline at 0.3 mg/kg. […] The dexamethasone and butyl esters had no effect.
The compounds were also injected i.p. at 1, 6 and 24 hr before the administration of bicuculline (0.3 mg/kg) s.c. The latency to the onset of generalized tonic-clonic epileptic seizures and the protection against the lethality of bicuculline were measured and evaluated as a percent of the data for vehicle-injected controls. No significant changes were obtained at the 1 hr and 6 hr time points. At the 24 hr time, however, some compounds delayed while others accelerated the onset of seizures.
The effect of the compound to delay the onset of a bicuculline-induced seizures was evaluated.
The ability of a substance to delay the onset of bicuculline-induced epileptic seizures in the mouse was measured (Table X). […] At 24 hr after i.p. injection of the cholesteryl derivative (6) at a dose of 30 mg/kg (64 pmol/kg), the onset of seizures was delayed by 30% (as compared to saline controls) after an acute i.p. injection of bicuculline at 0.3 mg/kg. […] The dexamethasone and butyl esters had no effect on seizures in mice.

[7] = 188 μmol/kg s.c., 5 min, Balb/c mice, mean ± S.E.M. (3 measurements)
[8] = 200 μmol/kg s.c., 60 min, Balb/c mice
[9] = 360 μmol/kg s.c., 180 min, Balb/c mice
[10] = Table IX summary, 5-min Brain Penetration Index
[11] = 70 μmol/kg s.c., 5 min, mice, mean ± S.E.M. (n = 3)

Structure (SMILES): CC/C=C\C/C=C\C/C=C\CCCCCCCC(=O)OCC(COC(=O)CCCN)OC(=O)CCCN (centres unmarked) [Compound 26, 1-linolenoyl-2,3-(gamma-aminobutyroyl)propane-1,2,3-triol]
- ED50 [1]: 69 µmol/kg
- level present in the brain at ED50 [2]: 2.1
- logP at 18 h [3]: 0.322
- remaining at 4 h (in vivo; brain): 60%
- remaining at 4 h (in vivo; kidney): 10%
- remaining at 4 h (in vivo; liver): 30%
- Stereotypy score induced by D-Amphetamine Sulfate (stereotypic behavior; 170 μmole/kg i.p. pretreatment, D-amphetamine sulfate 3 mg/kg, total score over 60 min (max 18), n = 4): 3.3 ± 0.9
- Stereotypy score induced by Apomorphine (stereotypic behavior; 170 μmole/kg i.p. pretreatment, apomorphine 1 mg/kg, total score over 60 min (max 18), n = 4): 8 ± 3.6
- Stereotypy (% of control), D-Amphetamine Sulfate (stereotypic behavior; 170 μmole/kg, D-amphetamine sulfate 3 mg/kg): 24 % of control
- Stereotypy (% of control), Apomorphine (stereotypic behavior; 170 μmole/kg, apomorphine 1 mg/kg): 52 % of control
- ED50 ([4]; Mus musculus, ip, 1 h, depression of locomotor activity at high doses, Figure 2): 36 mg/kg
- In Vivo Inhibition of General Motor Activity [4]: 4
- effect on motor activity at low doses [4]: enhancing locomotor activity; also recorded: enhances motor activity
- effect on motor activity at low doses ([4]; listed as monolinolenoyl-diGABA glyceride): stimulating activity
- (BRAIN) [5, 7]: 3.0 ± 0.2 nmol/g
- (LIVER) [5, 7]: 3.3 ± 0.2 nmol/g
- BPI [5, 7]: 90±13%
- (BRAIN) [5, 8]: 2.4 nmol/g
- (LIVER) [5, 8]: 2.9 nmol/g
- BPI [5, 8]: 87%
- (BRAIN) [5, 9]: 9.4 nmol/g
- (LIVER) [5, 9]: 5.5 nmol/g
- BPI [5, 9]: 170%
- increase of 5-min BPI over GABA [5]: 90 fold
- BPI [5, 10]: 90
- time at which liver levels reach a maximum ([5]; s.c., mice): 45 to 60 min
- anticonvulsant properties ([6]; administered at doses of 30 mg/kg): only weak anticonvulsant properties
- In Vivo Delay of Time of Onset of Bicuculline-induced seizures [6]: 4

Structure (SMILES): C[C@@H]1C[C@H]2[C@@H]3CCC4=CC(=O)C=C[C@]4(C)[C@@]3(F)[C@@H](O)C[C@]2(C)[C@@]1(O)C(=O)COC(=O)CCCN [Compound 7, Dexamethasone-21-gamma-aminobutyrate]
- logP at 18 h ([3]; n-octanol/water): -0.0458
- In Vivo Inhibition of General Motor Activity [4]: 0
- activity in the general motor activity test (in words) ([4]; i.p., mice): not active
- (BRAIN) [5, 11]: 8.7 ± 1 nmol/g
- (LIVER) [5, 11]: 10.8 ± 2 nmol/g
- BPI [5, 11]: 81 ± 20%
- (BRAIN) ([5]; 70 μmol/kg s.c., 15 min, mice): 21.5 nmol/g
- (LIVER) ([5]; 70 μmol/kg s.c., 15 min, mice): 29.0 nmol/g
- BPI ([5]; 70 μmol/kg s.c., 15 min, mice): 74%
- increase of 5-min BPI over GABA [5]: 81 fold
- BPI [5, 10]: 81
- In Vivo Delay of Time of Onset of Bicuculline-induced seizures [6]: 0
- effect on bicuculline-induced seizures (in words) ([6]; mice): no effect
